# According to ChEMBL document CHEMBL5154882, “Discovery of 4-Hydroxyquinazoline Derivatives as Small Molecular BET/PARP1 Inhibitors That Induce Defective Homologous Recombination and Lead to Synthetic Lethality for Triple-Negative Breast Cancer Therapy” (J Med Chem, 2022):
# Active and inactive are the calls of the source. No cut-off for these calls is given here.
# How the values were obtained:
# MDA-MB-468 [1] = assay: Inhibition of clone formation in human MDA-MB-468 cells measured after 10 days by crystal violet staining based analysis; assay type: functional, cell-based; settings: dose 5-20 µM, time 10.0 day, DDE = dose-dependent effect
# MDA-MB-468 [2] = assay: Downregulation of BRD4 expression level in human MDA-MB-468 cells by Western blot analysis; assay type: functional, cell-based; settings: dose 5-20 µM, DDE = dose-dependent effect
# MDA-MB-468 [3] = assay: Cell cycle arrest in human MDA-MB-468 cells assessed as accumulation at S phase at 10 uM incubated for 72 hrs by propidium iodide staining-based flow cytometry analysis (reference value: 21.1%); assay type: functional
# MDA-MB-231 [4] = assay: Antitumor activity against human MDA-MB-231 cells xenografted in BALB/c nude mouse assessed as tumor growth inhibition at 40 to 80 mg/kg incubated for 30 to 40 mins by Ki-67 staining based immunohistochemical analysis; assay type: functional, organism-based; settings: dose 40-80 mg/kg, time 30-40 min
# [5] = Apparent volume of distribution in Sprague-Dawley rat at 1 mg/kg, iv; assay type: ADME, organism-based; settings: in vivo
# MDA-MB-468 [6] = assay: Cell cycle arrest in human MDA-MB-468 cells assessed as accumulation at G0/G1 phase at 20 uM incubated for 72 hrs by propidium iodide staining-based flow cytometry analysis (reference value: 61.4%); assay type: functional
# MDA-MB-468 [7] = assay: Cell cycle arrest in human MDA-MB-468 cells assessed as accumulation at G2/M phase at 20 uM incubated for 72 hrs by propidium iodide staining-based flow cytometry analysis (reference value: 16.1%); assay type: functional
# MDA-MB-468 [8] = assay: Induction of apoptosis in human MDA-MB-468 cells assessed as downregulation of Bcl-2 protein level at 20 uM incubated for 72 hrs by Western blot analysis; assay type: functional, cell-based
# MDA-MB-468 [9] = assay: Antitumor activity against human MDA-MB-468 cells xenografted in BALB/c nude mouse model assessed as tumor growth inhibition at 40 to 80 mg/kg, ig administered daily for 16 days measured every 3 days relative to control; assay type: functional; settings: dose 40-80 mg/kg, time 16 day
# MDA-MB-468 [10] = assay: Induction of apoptosis in human MDA-MB-468 cells assessed as early apoptotic cells at 10 uM incubated for 72 hrs by annexin V/propidium iodide staining-based flow cytometry analysis (reference value: 4.07%); assay type: functional
# MDA-MB-468 [11] = assay: Cell cycle arrest in human MDA-MB-468 cells assessed as accumulation at G2/M phase at 5 uM incubated for 72 hrs by propidium iodide staining-based flow cytometry analysis (reference value: 16.1%); assay type: functional
# [12] = Toxicity in BALB/c nude mouse xenografted with human MDA-MB-468 cells assessed as morphological changes in lung at 80 mg/kg, ig administered daily for 16 days measured every 3 days by hematoxyin-eosin staining based analysis; assay type: organism-based; settings: in vivo, po, 384 h, time 16 day
# MDA-MB-468 [13] = assay: Inhibition of homologous recombinant repair in human MDA-MB-468 cells assessed as down-regulation of CtlP expression at 5 to 20 uM in by Western blot analysis; assay type: functional, cell-based; settings: dose 5-20 µM
# MDA-MB-468 [14] = assay: Induction of apoptosis in human MDA-MB-468 cells assessed as late apoptotic cells at 5 uM incubated for 72 hrs by annexin V/propidium iodide staining-based flow cytometry analysis (reference value: 1.34%); assay type: functional
# [15] = Cmax in Sprague-Dawley rat at 1 mg/kg, iv; assay type: ADME, organism-based; design: dose 1 mg/kg, route iv; settings: in vivo
# [16] = AUC (0 to t) in Sprague-Dawley rat at 10 mg/kg, po; assay type: ADME, organism-based; design: dose 10 mg/kg, route po; settings: in vivo
# MDA-MB-231 [17] = assay: Inhibition of homologous recombinant repair in human MDA-MB-231 cells assessed as down-regulation of Mre11 expression at 5 to 20 uM in by Western blot analysis; assay type: functional, cell-based; settings: dose 5-20 µM
# [18] = biological target: Bromodomain-containing protein 4 (Homo sapiens, UniProt O60885); assay: Binding affinity to BRD4 in human MDA-MB-468 cells assessed as increase in thermal stability at 5 uM by cellular thermal shift assay; assay type: cell-based
# [19] = AUC (0 to t) in Sprague-Dawley rat at 1 mg/kg, iv; assay type: ADME, organism-based; design: dose 1 mg/kg, route iv; settings: in vivo
# [20] = Toxicity in BALB/c nude mouse xenografted with human MDA-MB-468 cells assessed as change in body weight at 40 to 80 mg/kg, ig administered daily for 16 days measured every 3 days; assay type: organism-based; settings: in vivo, po, 384 h, dose 40-80 mg/kg, time 16 day
# MDA-MB-468 [21] = assay: Induction of apoptosis in human MDA-MB-468 cells assessed as early apoptotic cells at 5 uM incubated for 72 hrs by annexin V/propidium iodide staining-based flow cytometry analysis (reference value: 4.07%); assay type: functional
# [22] = Toxicity in BALB/c nude mouse xenografted with human MDA-MB-468 cells assessed as change in body weight at 80 mg/kg, ig administered daily for 16 days measured every 3 days; assay type: organism-based; settings: in vivo, po, 384 h, time 16 day
# MDA-MB-468 [23] = assay: Cell cycle arrest in human MDA-MB-468 cells assessed as accumulation at S phase at 5 uM incubated for 72 hrs by propidium iodide staining-based flow cytometry analysis (reference value: 21.1%); assay type: functional
# MDA-MB-468 [24] = assay: Cell cycle arrest in human MDA-MB-468 cells assessed as accumulation at G0/G1 phase at 5 uM incubated for 72 hrs by propidium iodide staining-based flow cytometry analysis (reference value: 61.4%); assay type: functional
# MDA-MB-468 [25] = assay: Induction of apoptosis in human MDA-MB-468 cells assessed as late apoptotic cells at 20 uM incubated for 72 hrs by annexin V/propidium iodide staining-based flow cytometry analysis (reference value: 1.34%); assay type: functional
# [26] = Toxicity in BALB/c nude mouse xenografted with human MDA-MB-468 cells assessed as morphological changes in liver at 80 mg/kg, ig administered daily for 16 days measured every 3 days by hematoxyin-eosin staining based analysis; assay type: organism-based; settings: in vivo, po, 384 h, time 16 day
# MDA-MB-468 [27] = assay: Downregulation of PARP1 expression level in human MDA-MB-468 cells by Western blot analysis; assay type: functional, cell-based; settings: dose 5-20 µM, DDE = dose-dependent effect
# [28] = Toxicity in BALB/c nude mouse xenografted with human MDA-MB-468 cells assessed as death at 40 to 80 mg/kg, ig administered daily for 16 days measured every 3 days; assay type: organism-based; settings: in vivo, po, 384 h, dose 40-80 mg/kg, time 16 day
# MDA-MB-468 [29] = assay: Induction of apoptosis in human MDA-MB-468 cells assessed as late apoptotic cells at 10 uM incubated for 72 hrs by annexin V/propidium iodide staining-based flow cytometry analysis (reference value: 1.34%); assay type: functional
# [30] = Cmax in Sprague-Dawley rat at 10 mg/kg, po; assay type: ADME, organism-based; design: dose 10 mg/kg, route po; settings: in vivo
# MDA-MB-231 [31] = assay: Antitumor activity against human MDA-MB-231 cells xenografted in BALB/c nude mouse assessed as reduction in PAR expression at 40 to 80 mg/kg incubated for 30 to 40 mins by immunohistochemical analysis; assay type: functional, organism-based; settings: dose 40-80 mg/kg, time 30-40 min
# [32] = Toxicity in BALB/c nude mouse xenografted with human MDA-MB-468 cells assessed as death at 80 mg/kg, ig administered daily for 16 days measured every 3 days; assay type: organism-based; settings: in vivo, po, 384 h, time 16 day
# MDA-MB-468 [33] = assay: Inhibition of homologous recombinant repair in human MDA-MB-468 cells assessed as down-regulation of Rad51 expression at 5 to 20 uM by Western blot analysis; assay type: functional, cell-based; settings: dose 5-20 µM, DDE = dose-dependent effect
# MDA-MB-468 [34] = assay: Inhibition of homologous recombinant repair in human MDA-MB-468 cells assessed as down-regulation of p-RPA32 expression at 5 to 20 uM in by Western blot analysis; assay type: functional, cell-based; settings: dose 5-20 µM
# MDA-MB-231 [35] = assay: Induction of DNA damage in human MDA-MB-231 cells assessed as increase in tail DNA measured at 5 to 20 uM after 3 days by comet assay; assay type: functional, cell-based; settings: dose 5-20 µM, time 3.0 day
structure (smiles),measurement,setting,value
COc1cc(OC)c2c(=O)[nH]c(-c3cccc(Cc4n[nH]c(=O)c5ccccc45)c3)nc2c1,inhibition,MDA-MB-468 [1],Dde
same,Activity,MDA-MB-468 [2],Dde
same,Activity,MDA-MB-468 [3],22.8%
same,Activity,MDA-MB-231 [4],Active
same,Vz,[5],21.1 L/kg
same,Activity,MDA-MB-468 [6],74.3%
same,Activity,MDA-MB-468 [7],14%
same,Activity,MDA-MB-468 [8],Active
same,TGI,MDA-MB-468 [9],68.7%
same,Activity,MDA-MB-468 [10],25.61%
same,Activity,MDA-MB-468 [11],16.6%
same,Activity,[12],Non-Toxic
same,inhibition,MDA-MB-468 [13],Active
same,Activity,MDA-MB-468 [14],6.08%
same,Cmax,[15],258 ng/mL
same,AUC(0-t),[16],1490 ng·h/mL
same,Activity,MDA-MB-231 [17],Active
same,Activity,[18],Active
same,AUC(0-t),[19],629 ng·h/mL
same,Activity,[20],Non-Toxic
same,Activity,MDA-MB-468 [21],21.47%
same,Activity,[22],Non-Toxic
same,Activity,MDA-MB-468 [23],22.2%
same,Activity,MDA-MB-468 [24],62.3%
same,Activity,MDA-MB-468 [25],6.18%
same,Activity,[26],Non-Toxic
same,Activity,MDA-MB-468 [27],Dde
same,Activity,[28],Non-Toxic
same,Activity,MDA-MB-468 [29],4.94%
same,Cmax,[30],242 ng/mL
same,Activity,MDA-MB-231 [31],Active
same,Activity,[32],Non-Toxic
same,inhibition,MDA-MB-468 [33],Dde
same,inhibition,MDA-MB-468 [34],Active
same,Activity,MDA-MB-231 [35],Active
